Key:
human BACE1 = human BACE1 (Homo sapiens, UniProt P56817); assay: BACE1 fluorescent kinetic assay (cleavage of peptide substrate WABC-6); format: biochemical; conditions: Activity Table, Examples 1-108; 10 nM enzyme, 25 μM substrate WABC-6, pH 4.5, room temperature
Description: Evaluation of BACE1 Binding Affinity of Test Compounds
Fluorescent Kinetic Assays
Dilution and mixing steps: total reaction volume: 100 μL
100 μM substrate dilution in 1×PBS was prepared, and
Fluorescence Readings: Readings at λex 320 nm and λem 420 nm are taken every 40 sec for 30 min at room temperature and the linear slope for substrate cleavage rate (vi) determined.

Chain of human BACE1 (P56817 46-501): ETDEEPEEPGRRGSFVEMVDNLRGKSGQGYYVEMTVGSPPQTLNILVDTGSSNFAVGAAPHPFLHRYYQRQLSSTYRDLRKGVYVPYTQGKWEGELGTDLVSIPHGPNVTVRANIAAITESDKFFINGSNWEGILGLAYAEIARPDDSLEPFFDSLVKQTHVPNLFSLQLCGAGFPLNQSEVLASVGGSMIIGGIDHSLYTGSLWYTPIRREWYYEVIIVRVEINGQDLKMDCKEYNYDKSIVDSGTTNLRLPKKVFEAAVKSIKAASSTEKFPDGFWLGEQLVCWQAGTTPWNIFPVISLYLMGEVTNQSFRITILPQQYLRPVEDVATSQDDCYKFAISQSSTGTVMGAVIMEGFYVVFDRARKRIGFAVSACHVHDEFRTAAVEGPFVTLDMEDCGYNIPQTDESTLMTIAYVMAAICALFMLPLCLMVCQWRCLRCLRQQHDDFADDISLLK

SMILES	IC50 (human BACE1) [nM]	melting point [°C]
Cc1ccccc1C1(c2ccc(OC(F)F)cc2)N=C(N)N(C)C1=O (stereo not shown) [Example 18, 2-Amino-5-(4-difluoromethoxy-phenyl)-3-methyl-5-o-tolyl-3,5-dihydro-imidazol-4-one]	> 1000	85 to 90
C=CCCC(F)c1cc(C2(c3ccc(OC(F)F)cc3)N=C(N)N(C)C2=O)ccc1F (stereo not shown) [Example 13, 2-Amino-5-(4-difluoromethoxy-phenyl)-5-[4-fluoro-3-(1-fluoro-pent-4-enyl)-phenyl]-3-methyl-3,5-dihydro-imidazol-4-one]	110 to 1000	50 to 55
CN1C(=O)C(c2ccc(OC(F)F)cc2)(c2cccc(OCCCF)c2)N=C1N (stereo not shown) [Example 82, 2-Amino-5-[4-(difluoromethoxy)phenyl]-5-[3-(3-fluoropropox-1-yl)phenyl]-3-methyl-3,5-dihydro-4H-imidazol-4-one]	< 100	161 to 162
CN1C(=O)C(c2ccc(OC(F)F)cc2)(c2ccc(F)c(CF)c2)N=C1N (stereo not shown) [Example 17, 2-Amino-5-(4-difluoromethoxy-phenyl)-5-(4-fluoro-3-fluoromethyl-phenyl)-3-methyl-3,5-dihydro-imidazol-4-one]	110 to 1000	70 to 73
CN1C(=O)C(c2ccc(OC(F)F)cc2)(c2cccc(CCCCC#N)c2)N=C1N (stereo not shown) [Example 83, 5-(3-{2-Amino-4-[4-(difluoromethoxy)phenyl]-1-methyl-5-oxo-4,5-dihydro-1H-imidazol-4-yl}phenyl)pentanenitrile]	< 100	65

Reference: patent US7723368B2, “Amino-5-[4-(difluoromethoxy)phenyl]-5-phenylimidazolone compounds for the inhibition of beta-secretase” (Wyeth LLC, priority 2007, dated 2010)
